From patent US8691753B2 (priority 2009, dated 2014)
Read-outs that look alike come from different tables or passages of the source.

How the values were obtained:
Type in all cases: biochemical
MMP-9h = MMP-9h (Homo sapiens (Human), UniProt P14780); test: Inhibition constant (Ki) on MMP-9h; conditions: human MMP-9
Excerpt: (§1) The inhibition constant Ki of these compounds has been determined according to the protocol described by Devel et al, 2006, J. Biol. Chem. (7).
(§2) In this table I and also in table II below, “h” corresponds to human. All of the compounds have therefore been evaluated on human MMPs.

MMP-10h = MMP-10h (Homo sapiens (Human), UniProt P09238); test: Inhibition constant (Ki) on MMP-10h; conditions: human MMP-10
MMP-8h = MMP-8h (Homo sapiens (Human), UniProt P22894); test: Inhibition constant (Ki) on MMP-8h; conditions: human MMP-8
MMP-2h = MMP-2h (Homo sapiens (Human), UniProt P08253); test: Inhibition constant (Ki) on MMP-2h; conditions: human MMP-2
Excerpt: as §1, §2

MMP-13h = MMP-13h (Homo sapiens (Human), UniProt P45452); test: Inhibition constant (Ki) on MMP-13h; conditions: human MMP-13
Excerpt: as §1, §2

MMP-12h = MMP-12h (Homo sapiens (Human), UniProt P39900); test: Inhibition constant (Ki) on MMP-12h; conditions: human MMP-12
MMP-14h = MMP-14h (Homo sapiens (Human), UniProt P50281); test: Inhibition constant (Ki) on MMP-14h; conditions: human MMP-14
Excerpt: as §1, §2

MMP-3h = MMP-3h (Homo sapiens (Human), UniProt P08254); test: Inhibition constant (Ki) on MMP-3h; conditions: human MMP-3
Excerpt: as §1, §2

MMP-8h, sequence (P22894 101-467): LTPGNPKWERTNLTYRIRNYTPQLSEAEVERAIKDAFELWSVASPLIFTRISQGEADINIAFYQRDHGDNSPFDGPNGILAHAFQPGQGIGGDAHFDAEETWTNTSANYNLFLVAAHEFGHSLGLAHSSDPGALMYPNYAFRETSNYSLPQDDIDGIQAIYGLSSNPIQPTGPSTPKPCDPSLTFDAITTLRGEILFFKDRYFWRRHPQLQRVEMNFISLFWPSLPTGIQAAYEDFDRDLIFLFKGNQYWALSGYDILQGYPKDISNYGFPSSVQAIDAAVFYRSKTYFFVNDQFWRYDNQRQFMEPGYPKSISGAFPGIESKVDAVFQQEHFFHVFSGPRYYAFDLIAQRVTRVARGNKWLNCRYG
MMP-2h, sequence (P08253 110-660): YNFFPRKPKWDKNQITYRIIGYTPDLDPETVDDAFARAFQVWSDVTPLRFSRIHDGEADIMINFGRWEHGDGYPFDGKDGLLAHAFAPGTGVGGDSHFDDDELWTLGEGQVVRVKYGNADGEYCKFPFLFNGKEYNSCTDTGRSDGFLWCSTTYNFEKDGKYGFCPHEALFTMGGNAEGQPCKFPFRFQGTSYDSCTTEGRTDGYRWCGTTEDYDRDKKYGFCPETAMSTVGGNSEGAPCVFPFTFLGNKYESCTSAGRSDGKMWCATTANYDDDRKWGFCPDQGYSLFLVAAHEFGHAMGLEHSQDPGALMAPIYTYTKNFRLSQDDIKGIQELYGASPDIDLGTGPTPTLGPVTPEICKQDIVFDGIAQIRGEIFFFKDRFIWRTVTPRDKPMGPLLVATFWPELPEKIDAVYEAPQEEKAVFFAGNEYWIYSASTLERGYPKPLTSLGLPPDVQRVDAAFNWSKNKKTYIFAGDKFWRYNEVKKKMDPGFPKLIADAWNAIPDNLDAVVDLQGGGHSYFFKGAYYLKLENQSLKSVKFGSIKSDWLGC
MMP-12h, sequence (P39900 106-470): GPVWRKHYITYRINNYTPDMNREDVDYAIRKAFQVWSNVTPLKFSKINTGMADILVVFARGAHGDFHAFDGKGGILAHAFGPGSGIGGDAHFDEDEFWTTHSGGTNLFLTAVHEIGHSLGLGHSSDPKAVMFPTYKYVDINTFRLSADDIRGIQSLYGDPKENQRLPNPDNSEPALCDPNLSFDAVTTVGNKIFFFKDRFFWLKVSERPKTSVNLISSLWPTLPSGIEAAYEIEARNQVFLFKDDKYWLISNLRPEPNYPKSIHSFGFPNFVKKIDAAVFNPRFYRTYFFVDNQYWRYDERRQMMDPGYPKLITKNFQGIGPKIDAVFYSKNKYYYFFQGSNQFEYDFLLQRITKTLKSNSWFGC
MMP-10h, sequence (P09238 99-476): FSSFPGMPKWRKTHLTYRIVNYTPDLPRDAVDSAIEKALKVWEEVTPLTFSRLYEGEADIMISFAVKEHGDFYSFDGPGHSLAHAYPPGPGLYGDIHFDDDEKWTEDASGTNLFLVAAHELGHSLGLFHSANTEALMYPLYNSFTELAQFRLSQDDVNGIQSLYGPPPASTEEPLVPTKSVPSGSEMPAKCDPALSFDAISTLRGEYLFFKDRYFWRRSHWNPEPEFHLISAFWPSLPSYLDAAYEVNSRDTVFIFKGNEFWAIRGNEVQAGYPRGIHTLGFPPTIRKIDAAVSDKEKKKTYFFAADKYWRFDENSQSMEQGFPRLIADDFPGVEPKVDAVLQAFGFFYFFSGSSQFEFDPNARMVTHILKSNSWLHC
MMP-9h, sequence (P14780 94-707): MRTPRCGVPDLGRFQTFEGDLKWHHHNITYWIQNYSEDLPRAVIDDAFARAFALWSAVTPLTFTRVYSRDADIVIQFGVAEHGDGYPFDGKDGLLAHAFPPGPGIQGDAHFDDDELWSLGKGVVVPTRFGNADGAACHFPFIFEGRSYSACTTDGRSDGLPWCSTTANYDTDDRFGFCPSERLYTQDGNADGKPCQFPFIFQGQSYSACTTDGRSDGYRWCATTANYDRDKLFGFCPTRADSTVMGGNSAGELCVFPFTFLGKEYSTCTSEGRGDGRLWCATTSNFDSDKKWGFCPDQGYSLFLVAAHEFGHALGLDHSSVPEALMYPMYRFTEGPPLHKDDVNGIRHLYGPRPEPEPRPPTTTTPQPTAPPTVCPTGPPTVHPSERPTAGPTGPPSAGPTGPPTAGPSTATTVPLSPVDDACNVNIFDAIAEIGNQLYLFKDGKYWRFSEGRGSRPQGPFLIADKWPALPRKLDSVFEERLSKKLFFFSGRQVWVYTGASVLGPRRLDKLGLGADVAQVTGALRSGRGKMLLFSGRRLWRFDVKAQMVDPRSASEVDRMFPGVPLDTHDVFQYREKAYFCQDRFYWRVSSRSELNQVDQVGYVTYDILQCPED
MMP-3h, sequence (P08254 100-477): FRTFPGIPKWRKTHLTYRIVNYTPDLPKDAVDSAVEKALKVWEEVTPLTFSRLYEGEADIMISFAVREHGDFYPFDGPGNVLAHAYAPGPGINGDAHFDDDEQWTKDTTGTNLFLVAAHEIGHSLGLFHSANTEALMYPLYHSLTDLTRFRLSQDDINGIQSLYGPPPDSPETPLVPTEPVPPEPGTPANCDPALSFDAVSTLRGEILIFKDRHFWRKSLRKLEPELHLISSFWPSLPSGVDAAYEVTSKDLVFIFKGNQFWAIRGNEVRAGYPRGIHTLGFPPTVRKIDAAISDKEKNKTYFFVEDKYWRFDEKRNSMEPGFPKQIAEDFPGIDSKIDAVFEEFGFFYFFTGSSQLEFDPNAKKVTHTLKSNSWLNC

Row | SMILES | Ki (MMP-9h; read-out: Ki MMP-9h) [nM] | Ki (MMP-10h; read-out: Ki MMP-10h) [nM] | Ki (MMP-8h; read-out: Ki MMP-8h) [nM] | Ki (MMP-2h; read-out: Ki MMP-2h) [nM] | Ki (MMP-13h; read-out: Ki MMP-13h) [nM] | Ki (MMP-12h; read-out: Ki MMP-12h) [nM] | Ki (MMP-14h; read-out: Ki MMP-14h) [nM] | Ki (MMP-3h; read-out: Ki MMP-3h) [µM] | Ki (MMP-9h) [nM] | Ki (MMP-10h) [nM] | Ki (MMP-8h) [nM] | Ki (MMP-2h) [nM] | Ki (MMP-13h) [nM] | Ki (MMP-12h) [nM] | Ki (MMP-14h) [nM] | Ki (MMP-3h) [µM]
1 | NC(=O)[C@H](CCC(=O)O)NC(=O)[C@H](CCC(=O)O)NC(=O)CCc1ccc(-c2cccc(Cl)c2)cc1 [Compound 57, (S)-5-amino-4-((S)-4-carboxy-2-(3-(3′-chlorobiphenyl-4-yl)propanamido)butanamido)-5-oxopentanoic acid] | > 1000 | > 5000 | > 1000 | > 1000 | > 5000 | 57 | > 10000 | > 10 |  |  |  |  |  |  |  | 
2 | C[C@H](NC(=O)[C@H](CCC(=O)O)NC(=O)CCc1ccc(-c2cccs2)cc1)C(N)=O [Compound 85, (S)-5-((S)-1-amino-1-oxopropan-2-ylamino)-5-oxo-4-(3-(4-(thiophen-2-yl)phenyl)propanamido)pentanoic acid] | > 5000 | 835 | 62 | 348 | > 1000 | 25.6 | > 1000 | > 10 |  |  |  |  |  |  |  | 
3 | NCCCC[C@H](NC(=O)[C@H](CCC(=O)O)NC(=O)CCc1ccc(-c2ccccc2)cc1)C(N)=O [Compound 44, (S)-4-(3-(biphenyl-4-yl)propanamido)-5-((S)-1,6-diamino-1-oxohexan-2-ylamino)-5-oxopentanoic acid] | > 5000 | > 5000 | 414 | > 1000 | > 1000 | 119 | > 5000 | > 10 |  |  |  |  |  |  |  | 
4 | NC(=O)[C@H](CC(=O)O)NC(=O)[C@H](CCC(=O)O)NC(=O)CCc1ccc(-c2cccs2)cc1 [Compound 83, (S)-5-((S)-1-amino-3-carboxy-1-oxopropan-2-ylamino)-5-oxo-4-(3-(4-(thiophen-2-yl)phenyl)propanamido)pentanoic acid] | > 1000 | 435 | 49 | 334 | > 1000 | 14.2 | > 1000 | > 10 |  |  |  |  |  |  |  | 
5 | NC(=O)[C@H](CCC(=O)O)NC(=O)[C@H](CCC(=O)O)NC(=O)CCc1ccc(-c2cccc(C(=O)O)c2)cc1 [Compound 56, 4′-(3-((S)-1-((S)-1-amino-4-carboxy-1-oxobutan-2-ylamino)-4-carboxy-1-oxobutan-2-ylamino)-3-oxopropyl)biphenyl-3-carboxylic acid] | > 1000 | > 10000 | > 1000 | > 5000 | > 5000 | 91 | > 10000 | > 10 |  |  |  |  |  |  |  | 
6 | C[C@H](NC(=O)[C@H](CCC(=O)O)NC(=O)CCc1cc(-c2ccc(-c3ccccc3)cc2)no1)C(N)=O [Compound 23, (S)-5-((S)-1-amino-1-oxopropan-2-ylamino)-4-(3-(3-(biphenyl-4-yl)isoxazol-5-yl)propanamido)-5-oxopentanoic acid] | > 1000 | 276 | 351 | 78 | 80 | 11.2 | > 1000 | 0.46 |  |  |  |  |  |  |  | 
7 | Cn1ccc(-c2ccc(CCC(=O)N[C@@H](CCC(=O)O)C(=O)N[C@@H](CCC(=O)O)C(N)=O)cc2)n1 [Compound 33, (S)-5-amino-4-((S)-4-carboxy-2-(3-(4-(1-methyl-1H-pyrazol-3-yl)phenyl)propanamido)butanamido)-5-oxopentanoic acid] | > 1000 | > 10000 | > 1000 | > 1000 | 518 | 797 | > 1000 | > 10 |  |  |  |  |  |  |  | 
8 | NC(=O)CC[C@H](NC(=O)[C@H](CCC(=O)O)NC(=O)CCc1ccc(-c2ccc(-c3ccccc3)cc2)cc1)C(N)=O [Compound 62, (S)-5-((S)-1,5-diamino-1,5-dioxopentan-2-ylamino)-4-(3-(4′-phenylbiphenyl-4-yl)propanamido)-5-oxopentanoic acid] | > 1000 | 102 | 452 | 45 | 20 | 5.2 | > 1000 | 0.244 |  |  |  |  |  |  |  | 
9 | NC(=O)[C@H](CCC(=O)O)NC(=O)[C@H](CCC(=O)O)NC(=O)CCc1ccc(-c2cccc([N+](=O)[O-])c2)cc1 [Compound 55, (S)-5-amino-4-((S)-4-carboxy-2-(3-(3′-nitrobiphenyl-4-yl)propanamido)butanamido)-5-oxopentanoic acid] |  |  |  |  |  |  |  |  | 685 | > 1000 | > 1000 | > 1000 | 436 | 73 | > 5000 | 0.878
